According to patent publication US9695155B2, “Herbicidal substituted pyrimidinyloxy benzene compounds” (E. I. DU PONT DE NEMOURS AND COMPANY, priority 2013, dated 2017):

Assays:
wheat [1] = test: Test A preemergence; format: in vivo, Triticum aestivum; conditions: for Plant response rating, Wheat: 125 g ai/ha, 0 to 100 scale where 0 is no effect and 100 is complete control
In short: (§1)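 Scoring: eye-based comparison with untreated controls, 0 for no effect through 100 for complete control, at about day 10. Treatments: directed soil spray preemergence; foliar spray postemergence on 2–10 cm plants at the one- to two-leaf stage. Medium: loam soil with sand.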

barnyardgrass [2] = test: Test A preemergence; format: in vivo, Echinochloa crus-galli; conditions: for Plant response rating, Barnyardgrass: 125 g ai/ha, 0 to 100 scale where 0 is no effect and 100 is complete control; for Barnyardgrass plant response rating: 500 g ai/ha, 0 to 100 scale, 0 no effect, 100 complete control, approx. 10 days
In short: as §1

giant foxtail [3] = test: Test A postemergence; format: in vivo, Setaria faberii; conditions: 0 to 100 scale where 0 is no effect and 100 is complete control
In short: as §1

Heteranthera limosa = test: Test B flooded paddy test; format: in vivo; conditions: Flood, 250 g ai/ha; 0 to 100 scale where 0 is no effect and 100 is complete control
In short: (§2)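 Seedlings are raised to two leaves, flooded to a depth of 3 cm and dosed by adding the compound to the floodwater. Water level is kept constant, and plants are scored visually versus controls 13–15 days later (0 = no effect, 100 = complete control).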

pigweed [4] = test: Test A postemergence; format: in vivo, Amaranthus retroflexus; conditions: 0 to 100 scale where 0 is no effect and 100 is complete control
In short: as §1

large (Lg) crabgrass [5] = test: Test A preemergence; format: in vivo, Digitaria sanguinalis; conditions: for Plant response rating, Crabgrass, Large: 125 g ai/ha, 0 to 100 scale where 0 is no effect and 100 is complete control; for Crabgrass, Large plant response rating: 500 g ai/ha, 0 to 100 scale, 0 no effect, 100 complete control, approx. 10 days
In short: as §1

wheat [6] = test: Test A postemergence; format: in vivo, Triticum aestivum; conditions: 0 to 100 scale where 0 is no effect and 100 is complete control
In short: as §1

velvetleaf [7] = test: Test A preemergence; format: in vivo, Abutilon theophrasti; conditions: for Plant response rating, Velvetleaf: 125 g ai/ha, 0 to 100 scale where 0 is no effect and 100 is complete control
In short: as §1

corn [8] = test: Test A preemergence; format: in vivo, Zea mays; conditions: for Plant response rating, Corn: 125 g ai/ha, 0 to 100 scale where 0 is no effect and 100 is complete control; for Corn plant response rating: 500 g ai/ha, 0 to 100 scale, 0 no effect, 100 complete control, approx. 10 days
In short: as §1

barnyardgrass [9] = test: Test B flooded paddy test; format: in vivo, Echinochloa crus-galli; conditions: Flood, 250 g ai/ha; 0 to 100 scale where 0 is no effect and 100 is complete control
In short: as §2

morningglory [10] = test: Test A postemergence; format: in vivo, Ipomoea spp.; conditions: 0 to 100 scale where 0 is no effect and 100 is complete control
In short: as §1

barnyardgrass [11] = test: Test A postemergence; format: in vivo, Echinochloa crus-galli
In short: as §1

pigweed [12] = test: Test A preemergence; format: in vivo, Amaranthus retroflexus; conditions: for Plant response rating, Pigweed: 125 g ai/ha, 0 to 100 scale where 0 is no effect and 100 is complete control; for Pigweed plant response rating: 500 g ai/ha, 0 to 100 scale, 0 no effect, 100 complete control, approx. 10 days
In short: as §1

velvetleaf [13] = test: Test A postemergence; format: in vivo, Abutilon theophrasti; conditions: 0 to 100 scale where 0 is no effect and 100 is complete control
In short: as §1

large (Lg) crabgrass [14] = test: Test A postemergence; format: in vivo, Digitaria sanguinalis
In short: as §1

morningglory [15] = test: Test A preemergence; format: in vivo, Ipomoea spp.; conditions: for Plant response rating, Morningglory: 125 g ai/ha, 0 to 100 scale where 0 is no effect and 100 is complete control; for Morningglory plant response rating: 500 g ai/ha, 0 to 100 scale, 0 no effect, 100 complete control, approx. 10 days
In short: as §1

rice = test: Test B flooded paddy test; format: in vivo, Oryza sativa; conditions: Flood, 250 g ai/ha; 0 to 100 scale where 0 is no effect and 100 is complete control
In short: as §2

giant foxtail [16] = test: Test A preemergence; format: in vivo, Setaria faberii; conditions: for Plant response rating, Foxtail, Giant: 125 g ai/ha, 0 to 100 scale where 0 is no effect and 100 is complete control; for Foxtail, Giant plant response rating: 500 g ai/ha, 0 to 100 scale, 0 no effect, 100 complete control, approx. 10 days
In short: as §1

sedge, umbrella = test: Test B flooded paddy test; format: in vivo, Cyperus difformis; conditions: Flood, 250 g ai/ha; 0 to 100 scale where 0 is no effect and 100 is complete control
In short: as §2

corn [17] = test: Test A postemergence; format: in vivo, Zea mays
In short: as §1

[18] = 500 g ai/ha, 0 to 100 scale, 0 no effect, 100 complete control, approx. 10 days
[19] = 125 g ai/ha, 0 to 100 scale where 0 is no effect and 100 is complete control
[20] = 500 g ai/ha, 0 to 100 scale, 0 no effect, 100 complete control
[21] = 500 g ai/ha, 0 to 100 scale where 0 is no effect and 100 is complete control

| SMILES | Plant response rating, Wheat (wheat [1]) | Plant response rating, Barnyardgrass (barnyardgrass [2]) | Barnyardgrass plant response rating (barnyardgrass [2]) | Plant response rating, Foxtail, Giant (giant foxtail [3]; 125 g ai/ha) | Plant response rating, Foxtail, Giant (giant foxtail [3]; 500 g ai/ha) | Plant response rating, Ducksalad (Heteranthera limosa) | Plant response rating, Pigweed (pigweed [4]; 500 g ai/ha) | Plant response rating, Crabgrass, Large (large (Lg) crabgrass [5]) | Crabgrass, Large plant response rating (large (Lg) crabgrass [5]) | Plant response rating, Wheat (wheat [6]; 500 g ai/ha) | Plant response rating, Velvetleaf (velvetleaf [7]) | Plant response rating, Corn (corn [8]) | Corn plant response rating (corn [8]) | Plant response rating, Barnyardgrass (barnyardgrass [9]) | Plant response rating, Morningglory (morningglory [10]; 500 g ai/ha) | Plant response rating, Barnyardgrass (barnyardgrass [11]; [19]) | Plant response rating, Pigweed (pigweed [12]) | Pigweed plant response rating (pigweed [12]) | Plant response rating, Velvetleaf (velvetleaf [13]; 500 g ai/ha) | Plant response rating, Crabgrass, Large (large (Lg) crabgrass [14]; [19]) | also measured |
| --- | --- | --- | --- | --- | --- | --- | --- | --- | --- | --- | --- | --- | --- | --- | --- | --- | --- | --- | --- | --- | --- |
| FC(F)(F)c1cccc(Oc2ncc(Br)cn2)c1-n1cc(Br)cn1 [Compound 77] | 0 | 50 | 90 | 50 | 90 | 40 | 100 | 90 | 100 | 30 | 60 | 0 | 0 | 0 | 100 | 40 | 100 | 100 | 100 | 50 | Wheat plant response rating (wheat [1]; [18]): 0; Plant response rating, Pigweed (pigweed [4]; 125 g ai/ha): 100; Plant response rating, Wheat (wheat [6]; 125 g ai/ha): 0; Velvetleaf plant response rating (velvetleaf [7]; [18]): 100; Plant response rating, Morningglory (morningglory [10]; 125 g ai/ha): 70; Plant response rating, Barnyardgrass (barnyardgrass [11]; [20]): 70; Plant response rating, Velvetleaf (velvetleaf [13]; 125 g ai/ha): 80; Plant response rating, Crabgrass, Large (large (Lg) crabgrass [14]; [20]): 90; Plant response rating, Morningglory (morningglory [15]): 10; Morningglory plant response rating (morningglory [15]): 60; Plant response rating, Rice (rice): 20; Plant response rating, Foxtail, Giant (giant foxtail [16]): 90; Foxtail, Giant plant response rating (giant foxtail [16]): 100; Plant response rating, Sedge, Umbrella (sedge, umbrella): 70; Plant response rating, Corn (corn [17]; [19]): 20; Plant response rating, Corn (corn [17]; [20]): 40 |
| Cc1cnn(-c2c(C#N)cccc2Oc2ncc(Cl)cn2)c1 [Compound 95] | 0 | 50 | 100 | 40 | 80 | 40 | 100 | 100 | 100 | 40 | 90 | 0 | 40 | 0 | 90 | 50 | 90 | 100 | 100 | 40 | Plant response rating, Pigweed (pigweed [4]; 125 g ai/ha): 100; Plant response rating, Wheat (wheat [6]; 125 g ai/ha): 0; Plant response rating, Morningglory (morningglory [10]; 125 g ai/ha): 60; Plant response rating, Barnyardgrass (barnyardgrass [11]; [21]): 80; Plant response rating, Velvetleaf (velvetleaf [13]; 125 g ai/ha): 70; Plant response rating, Crabgrass, Large (large (Lg) crabgrass [14]; [21]): 90; Plant response rating, Morningglory (morningglory [15]): 50; Morningglory plant response rating (morningglory [15]): 100; Plant response rating, Rice (rice): 0; Plant response rating, Foxtail, Giant (giant foxtail [16]): 100; Foxtail, Giant plant response rating (giant foxtail [16]): 100; Plant response rating, Sedge, Umbrella (sedge, umbrella): 50; Plant response rating, Corn (corn [17]; [19]): 10; Plant response rating, Corn (corn [17]; [21]): 70 |
| N#Cc1cccc(Oc2ncc(C(F)(F)F)cn2)c1-n1cc(Br)cn1 [Compound 113] | 0 | 0 | 90 | 10 | 60 | 0 | 80 | 80 | 100 | 60 | 10 | 0 | 20 | 0 | 30 | 0 | 100 | 100 | 80 | 20 | Plant response rating, Barnyardgrass (barnyardgrass [11]; [21]): 80; Plant response rating, Crabgrass, Large (large (Lg) crabgrass [14]; [21]): 70; Plant response rating, Morningglory (morningglory [15]): 0; Morningglory plant response rating (morningglory [15]): 30; Plant response rating, Rice (rice): 0; Plant response rating, Foxtail, Giant (giant foxtail [16]): 20; Foxtail, Giant plant response rating (giant foxtail [16]): 90; Plant response rating, Sedge, Umbrella (sedge, umbrella): 0; Plant response rating, Corn (corn [17]; [19]): 10; Plant response rating, Corn (corn [17]; [21]): 60 |
